{"source": "paper PMC8621208", "about": "“Antiseptic 9-Meric Peptide with Potency against Carbapenem-Resistant Acinetobacter baumannii Infection” (International Journal of Molecular Sciences, 2021)", "key": {"CRKP K2": {"system": "CRKP K2", "test": "MIC, broth dilution", "assay_type": "cell-based, carbapenem-resistant K. pneumoniae", "conditions": "read-out: Minimal Inhibitory Concentration (MIC)", "description": "(§1) Escherichia coli KCTC 1682 was obtained from the Korean Collection for Type Cultures (KCTC) (Jeongeup-si, Korea), Acinetobacter baumannii KCCM 40203, Pseudomonas aeruginosa KCCM 11328 from the Korea Culture Center of Microorganisms (KCCM) (Seoul, Korea). Klebsiella pneumoniae NCCP 16054 were obtained from the National Culture Collection for Pathogens (NCCP) (Osong, Korea). Additionally, two carbapenem-resistant E. coli (CREC E1 and E2), 11 carbapenem-resistant A. baumannii (CRAB C0–C10) and two carbapenem-resistant K. pneumoniae (CRKP K1 and K2) were isolated from the patients, who presented symptoms and signs of infection at Korea University Anam Hospital (Seoul, Korea) (IRB registration no. 2020AN0157, 4 March 2021). CRAB C0–C10 have the OXA-23 gene with carbapenem-resistance.\n(§2) The minimum inhibitory concentrations (MIC) were determined using broth dilution method. Briefly, all the mentioned bacterial strains were grown overnight at 37 °C by Muller–Hinton (MH) media. […] After 16 h incubation, the bacterial growth was read at 600 nm using a SpectraMAX microplate reader (Molecular Devices, San Jose, CA, USA)."}, "CRKP K1": {"system": "CRKP K1", "test": "MIC, broth dilution", "assay_type": "cell-based, carbapenem-resistant K. pneumoniae", "conditions": "read-out: Minimal Inhibitory Concentration (MIC)", "description": "as §1, §2"}, "E. coli [1]": {"system": "E. coli", "assay_type": "cell-based, Escherichia coli", "conditions": "peptide pre-incubated 6 h at 37 °C", "description": "(§3) All the peptides at their MICs were pre-incubated with proteolytic enzymes such as trypsin and α-chymotrypsin (10,000:1; peptide: enzyme ratio) for 6 h at 37 °C. Then, 100 μL of peptide-protease cocktail was added to the 100 µL bacterial suspension (E. coli, A. baumannii and CRAB C0, 2 × 10^5 CFU/mL) and further incubated for 16 h at 37 °C. Bacterial suspension without peptide and protease served as negative control. The analysis was repeated at three times using independent experiments, and the degree of bacterial growth was measured at 600 nm using a microplate reader."}, "E. coli [2]": {"system": "E. coli", "test": "MIC, broth dilution", "assay_type": "cell-based, Escherichia coli KCTC 1682", "conditions": "E. coli; 16 h, MH media; read-out: Minimal Inhibitory Concentration (MIC)", "description": "as §1, §2"}, "CRAB C0 [3]": {"system": "CRAB C0", "assay_type": "cell-based, carbapenem-resistant A. baumannii", "conditions": "peptide pre-incubated 6 h at 37 °C", "description": "as §3"}, "CRAB C0 [4]": {"system": "CRAB C0", "test": "MIC, broth dilution", "assay_type": "cell-based, carbapenem-resistant A. baumannii", "conditions": "read-out: Minimal Inhibitory Concentration (MIC)", "description": "as §1, §2"}, "CRAB C4": {"system": "CRAB C4", "test": "MIC, broth dilution", "assay_type": "cell-based, carbapenem-resistant A. baumannii", "conditions": "read-out: Minimal Inhibitory Concentration (MIC)", "description": "as §1, §2"}, "CRAB C10": {"system": "CRAB C10", "test": "MIC, broth dilution", "assay_type": "cell-based, carbapenem-resistant A. baumannii", "conditions": "read-out: Minimal Inhibitory Concentration (MIC)", "description": "as §1, §2"}, "CRAB C5": {"system": "CRAB C5", "test": "MIC, broth dilution", "assay_type": "cell-based, carbapenem-resistant A. baumannii", "conditions": "read-out: Minimal Inhibitory Concentration (MIC)", "description": "as §1, §2"}, "CRAB C9": {"system": "CRAB C9", "test": "MIC, broth dilution", "assay_type": "cell-based, carbapenem-resistant A. baumannii", "conditions": "read-out: Minimal Inhibitory Concentration (MIC)", "description": "as §1, §2"}, "CRAB C7": {"system": "CRAB C7", "test": "MIC, broth dilution", "assay_type": "cell-based, carbapenem-resistant A. baumannii", "conditions": "read-out: Minimal Inhibitory Concentration (MIC)", "description": "as §1, §2"}, "CRAB C3": {"system": "CRAB C3", "test": "MIC, broth dilution", "assay_type": "cell-based, carbapenem-resistant A. baumannii", "conditions": "read-out: Minimal Inhibitory Concentration (MIC)", "description": "as §1, §2"}, "CRAB C2": {"system": "CRAB C2", "test": "MIC, broth dilution", "assay_type": "cell-based, carbapenem-resistant A. baumannii", "conditions": "read-out: Minimal Inhibitory Concentration (MIC)", "description": "as §1, §2"}, "CRAB C6": {"system": "CRAB C6", "test": "MIC, broth dilution", "assay_type": "cell-based, carbapenem-resistant A. baumannii", "conditions": "read-out: Minimal Inhibitory Concentration (MIC)", "description": "as §1, §2"}, "CREC E1": {"system": "CREC E1", "test": "MIC, broth dilution", "assay_type": "cell-based, carbapenem-resistant E. coli", "conditions": "read-out: Minimal Inhibitory Concentration (MIC)", "description": "as §1, §2"}, "CREC E2": {"system": "CREC E2", "test": "MIC, broth dilution", "assay_type": "cell-based, carbapenem-resistant E. coli", "conditions": "read-out: Minimal Inhibitory Concentration (MIC)", "description": "as §1, §2"}, "P. aeruginosa": {"system": "P. aeruginosa", "test": "MIC, broth dilution", "assay_type": "cell-based, Pseudomonas aeruginosa KCCM 11328", "conditions": "16 h, MH media, read-out: Minimal Inhibitory Concentration (MIC)", "description": "as §1, §2"}, "[5]": {"system": "RAW 264.7 murine macrophage cells", "test": "Cytotoxicity, WST-8 assay", "assay_type": "cell-based, mouse", "conditions": "100 μM, 24 h", "description": "Figure 6 In vitro cytotoxicity of Pro9-3 and their analogues. (A) Dose-response curve represent the hemolytic activity of peptides against sheep red blood cell (sRBC). Concentration-dependent (0–100 μM) toxic effects induced by peptides on (B) RAW 264.7 murine macrophage cells and (C) human kidney (HK)-2 cells for 24 h. Melittin was used as a control. Statistical analysis was performed using two-way analysis of variance (ANOVA) with Dunnett’s comparison test. Values are expressed as mean ± SEM of three independent experiments. * p < 0.05, ** p < 0.01, *** p < 0.001, and ns, non-significant compared with the control.\nRAW 264.7 mouse macrophage cells and Human kidney (HK)-2 cells were obtained from Korean cell line bank (Seoul, Korea) and the cells were maintained in DMEM culture media (Thermo Fischer Scientific Inc., Waltham, MA, USA) supplemented with 10% fetal bovine serum, 1% penicillin/streptomycin at 37 °C in a humidified 5% CO2 incubator. The cytotoxicity of the peptides was analyzed using WST-8 cell proliferation assay (Biomax Co, Ltd., Seoul, Korea), and the experiment was performed according to the kit protocol. Briefly, cells (1 × 10^4) were seeded in 96-well plate and the peptides treatment (0–100 μM) were initiated at 80% confluency and then for 24 h. After incubation, WST-8 reagent was added and the change in absorbance was read at 450 nm against reagent blank, and values are expressed as percent cell survival."}}, "note": "Like-named read-outs stand apart in the source and are kept apart here. Where a SMILES comes first, the peptide text is derived from it. [ ]: non-standard residue; d: D form.", "data": [{"smiles": "CC[C@@H](C)[C@@H](NC(=O)[C@@H](Cc1c[nH]c2ccccc12)NC(=O)[C@@H](CCCNC(=N)N)NC(=O)[C@H](N)CCCNC(=N)N)C(=O)N[C@H](C)C(=O)N[C@H](CC(C)C)C(=O)N[C@H](Cc1c[nH]c2ccccc12)C(=O)N[C@H](CC(C)C)C(=O)N[C@H](CCCNC(=N)N)C(N)=O", "note": "[R-Pro9-3D, rrwialwlr-NH2] (H-[dR][dR][dW][dI][dA][dL][dW][dL][dR]-NH2)", "values": [{"measurement": "MIC", "setting": "CRKP K2", "result": 8, "unit": "µM"}, {"measurement": "MIC", "setting": "CRKP K1", "result": 16, "unit": "µM"}, {"measurement": "Minimal Inhibitory Concentration (MIC)", "setting": "E. coli [1]; E. coli + Trypsin", "result": 8, "unit": "µM"}, {"measurement": "Minimal Inhibitory Concentration (MIC)", "setting": "E. coli [1]; E. coli + α-Chymotrypsin", "result": 8, "unit": "µM"}, {"measurement": "MIC", "setting": "E. coli [2]", "result": 8, "unit": "µM"}, {"measurement": "Minimal Inhibitory Concentration (MIC)", "setting": "CRAB C0 [3]; CRAB C0 + Trypsin", "result": 4, "unit": "µM"}, {"measurement": "Minimal Inhibitory Concentration (MIC)", "setting": "CRAB C0 [3]; CRAB C0 + α-Chymotrypsin", "result": 4, "unit": "µM"}, {"measurement": "MIC", "setting": "CRAB C0 [4]", "result": 4, "unit": "µM"}, {"measurement": "MIC", "setting": "CRAB C4", "result": 4, "unit": "µM"}, {"measurement": "MIC", "setting": "CRAB C10", "result": 4, "unit": "µM"}, {"measurement": "MIC", "setting": "CRAB C5", "result": 4, "unit": "µM"}, {"measurement": "MIC", "setting": "CRAB C9", "result": 4, "unit": "µM"}, {"measurement": "MIC", "setting": "CRAB C7", "result": 4, "unit": "µM"}, {"measurement": "MIC", "setting": "CRAB C3", "result": 8, "unit": "µM"}, {"measurement": "MIC", "setting": "CRAB C2", "result": 4, "unit": "µM"}, {"measurement": "MIC", "setting": "CRAB C6", "result": 4, "unit": "µM"}, {"measurement": "MIC", "setting": "CREC E1", "result": 8, "unit": "µM"}, {"measurement": "MIC", "setting": "CREC E2", "result": 8, "unit": "µM"}, {"measurement": "MIC", "setting": "P. aeruginosa", "result": 8, "unit": "µM"}, {"measurement": "Toxicity in RAW 264.7 cells", "setting": "[5]", "result": 20.3, "unit": "%"}]}]}
